Measurements reported in ChEMBL document CHEMBL1201862, “PubChem BioAssay data set” (2004).
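48-hour exposure; five concentrations; linearly interpolated endpoints. At the GI50, growth is halved.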 Activity calls are given as the source filed them. Cut-off read from the data, not from the text of the source: active = GI50 up to about 1.1 µM and inactive = higher.

How the values were obtained:
Assay in all cases: DTP human tumour cell line panel, 48 h
PC-3 = test system: PC-3
HCC 2998 = test system: HCC 2998
SNB-75 = test system: SNB-75
NCI-H23 = test system: NCI-H23
KM12 = test system: KM12
SF-539 = test system: SF-539
OVCAR-8 = test system: OVCAR-8
SW-620 = test system: SW-620
MCF7 = test system: MCF7
UACC-257 = test system: UACC-257
HOP-62 = test system: HOP-62
SF-295 = test system: SF-295
HL-60 = test system: HL-60
786-0 = test system: 786-0
NCI-H226 = test system: NCI-H226
SK-OV-3 = test system: SK-OV-3
CCRF-CEM = test system: CCRF-CEM
MOLT-4 = test system: MOLT-4
SN12C = test system: SN12C
LOX IMVI = test system: LOX IMVI

Measured: GI50

CSc1nc(O)c(C#N)c(-c2ccccc2)n1
inactive: PC-3 > 100 µM | HCC 2998 > 100 µM | SNB-75 > 100 µM | NCI-H23 > 100 µM | KM12 > 100 µM | SF-539 > 100 µM | OVCAR-8 > 100 µM | SW-620 > 100 µM | MCF7 > 100 µM | UACC-257 > 100 µM | HOP-62 > 100 µM | SF-295 > 100 µM | HL-60 > 100 µM | 786-0 > 100 µM | NCI-H226 > 100 µM | SK-OV-3 > 100 µM | CCRF-CEM > 100 µM | MOLT-4 > 100 µM | SN12C > 100 µM

Cc1ccc(-c2n[nH]c(=O)n2/N=C\c2ccccc2O)cc1
inactive: PC-3 > 100 µM | HCC 2998 > 100 µM | SNB-75 > 100 µM | NCI-H23 > 100 µM | KM12 > 100 µM | SF-539 > 100 µM | OVCAR-8 > 100 µM | SW-620 > 100 µM | MCF7 55.6 µM | UACC-257 > 100 µM | HOP-62 > 100 µM | SF-295 > 100 µM | HL-60 > 100 µM | 786-0 > 100 µM | NCI-H226 > 100 µM | SK-OV-3 81.3 µM | CCRF-CEM > 100 µM | MOLT-4 > 100 µM | SN12C > 100 µM

CC(C)c1cc(C(F)(F)F)nc(NNc2nc(C(C)C)cc(C(F)(F)F)n2)n1
inactive: PC-3 > 100 µM | SNB-75 24.2 µM | NCI-H23 53.8 µM | KM12 > 100 µM | SF-539 90.8 µM | OVCAR-8 > 100 µM | SW-620 > 100 µM | MCF7 > 100 µM | UACC-257 15.9 µM | HOP-62 13.2 µM | SF-295 37.1 µM | HL-60 > 100 µM | 786-0 28.4 µM | NCI-H226 > 100 µM | SK-OV-3 33.7 µM | CCRF-CEM > 100 µM | MOLT-4 > 100 µM | SN12C > 100 µM

Cc1sc(Nc2ccc(Nc3nc(-c4ccccc4)c(C)s3)cc2)nc1-c1ccccc1
inactive: PC-3 16.6 µM | HCC 2998 16.9 µM | SNB-75 48.4 µM | NCI-H23 28.7 µM | KM12 > 100 µM | SF-539 26.3 µM | OVCAR-8 > 100 µM | SW-620 40.2 µM | MCF7 21.8 µM | UACC-257 43.1 µM | HOP-62 > 100 µM | SF-295 95.9 µM | LOX IMVI 40.6 µM | 786-0 21.2 µM | NCI-H226 63.1 µM | SK-OV-3 > 100 µM | CCRF-CEM 2.29 µM | MOLT-4 17.1 µM | SN12C 31.3 µM

c1ccc2c(Cc3nnc4sc(SSc5nn6c(Cc7c[nH]c8ccccc78)nnc6s5)nn34)c[nH]c2c1
inactive: PC-3 19.3 µM | HCC 2998 16.7 µM | SNB-75 48.2 µM | NCI-H23 19.1 µM | KM12 22.9 µM | SF-539 23.1 µM | OVCAR-8 26.4 µM | SW-620 16.7 µM | MCF7 15.1 µM | UACC-257 33 µM | HOP-62 16.2 µM | SF-295 19.5 µM | HL-60 24.2 µM | 786-0 20.8 µM | SK-OV-3 39.9 µM | CCRF-CEM 32.6 µM | MOLT-4 8.93 µM | SN12C 18.7 µM

COC(=O)CCSC1=CC(=O)c2nc3ccccc3c3ccnc1c23
inactive: PC-3 15.4 µM | HCC 2998 14.3 µM | SNB-75 > 100 µM | NCI-H23 15.6 µM | KM12 16.2 µM | SF-539 15.7 µM | OVCAR-8 17.1 µM | SW-620 22.2 µM | MCF7 20.2 µM | UACC-257 17.2 µM | HOP-62 33 µM | SF-295 58.7 µM | HL-60 3.61 µM | 786-0 19.9 µM | NCI-H226 47.1 µM | SK-OV-3 54.3 µM | CCRF-CEM 4.49 µM | MOLT-4 9.95 µM | SN12C 19.7 µM

COC(=O)[C@H]1CO[C@H]2C/C(C)=C/CC/C(C)=C/CC[C@@]3(C)O[C@@H]3C[C@H]21
inactive: PC-3 15.3 µM | HCC 2998 9.38 µM | SNB-75 14.4 µM | NCI-H23 17.5 µM | KM12 9.57 µM | SF-539 15.6 µM | OVCAR-8 14.7 µM | SW-620 10.4 µM | MCF7 16.9 µM | UACC-257 18.4 µM | HOP-62 15.8 µM | SF-295 17.9 µM | HL-60 10.7 µM | 786-0 16.3 µM | NCI-H226 12 µM | SK-OV-3 29.9 µM | CCRF-CEM 10 µM | MOLT-4 10.4 µM | SN12C 10.8 µM
